Where two headings read alike, the source gives them in different places.
Legend:
Test in all cases: Cerep selectivity panel
Format in all cases: binding
Ca2+ Channel = test system: Ca2+ Channel
Summary of the method: (§1)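 Panel profiling: compound added at 1 µM or 10 µM, activity assessed against 50 receptors, ion channels and transporters.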

M2 (h) = target: T1, M2 (h) (Homo sapiens, UniProt P08172)
T1 construct: purchased Cerep
T1 sequence (P08172 1-466): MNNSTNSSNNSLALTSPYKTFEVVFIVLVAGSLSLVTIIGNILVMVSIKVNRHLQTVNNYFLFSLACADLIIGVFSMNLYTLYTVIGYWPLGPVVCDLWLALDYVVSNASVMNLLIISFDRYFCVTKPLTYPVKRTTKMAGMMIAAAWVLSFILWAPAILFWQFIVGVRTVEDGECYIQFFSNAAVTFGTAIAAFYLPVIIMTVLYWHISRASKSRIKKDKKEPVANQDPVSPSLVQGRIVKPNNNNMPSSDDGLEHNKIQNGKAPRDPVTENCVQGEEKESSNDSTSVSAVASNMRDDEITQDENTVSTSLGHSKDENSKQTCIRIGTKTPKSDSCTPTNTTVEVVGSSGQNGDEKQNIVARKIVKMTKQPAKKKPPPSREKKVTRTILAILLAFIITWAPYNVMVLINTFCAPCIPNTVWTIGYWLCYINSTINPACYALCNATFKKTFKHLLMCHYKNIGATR
Summary of the method: as §1

SST = test system: SST
Summary of the method: as §1

CCR1 (h) = target: T2, CCR1 (h) (Homo sapiens, UniProt P32246)
T2 construct: purchased Cerep
Summary of the method: as §1

ETA (h) = target: T3, ETA (h) (Homo sapiens, UniProt P25101); details: for inhibition at 10 µM: read-out: % Inhibition at 10µM
T3 construct: purchased Cerep
T3 sequence (P25101 21-427): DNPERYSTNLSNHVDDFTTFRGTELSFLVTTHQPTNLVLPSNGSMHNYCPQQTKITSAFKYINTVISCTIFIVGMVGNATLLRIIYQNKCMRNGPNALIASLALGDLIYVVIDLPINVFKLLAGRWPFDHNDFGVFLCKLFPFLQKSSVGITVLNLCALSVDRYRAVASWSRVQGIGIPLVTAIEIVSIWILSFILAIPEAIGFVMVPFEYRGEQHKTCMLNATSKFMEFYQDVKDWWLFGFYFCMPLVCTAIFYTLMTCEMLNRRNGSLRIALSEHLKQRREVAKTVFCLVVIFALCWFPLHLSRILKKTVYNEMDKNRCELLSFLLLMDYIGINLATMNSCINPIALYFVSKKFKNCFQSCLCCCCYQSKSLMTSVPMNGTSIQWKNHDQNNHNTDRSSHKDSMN
Summary of the method: as §1

M1 (h) = target: T4, M1 (h) (Homo sapiens, UniProt P11229)
T4 construct: purchased Cerep
T4 sequence (P11229 1-460): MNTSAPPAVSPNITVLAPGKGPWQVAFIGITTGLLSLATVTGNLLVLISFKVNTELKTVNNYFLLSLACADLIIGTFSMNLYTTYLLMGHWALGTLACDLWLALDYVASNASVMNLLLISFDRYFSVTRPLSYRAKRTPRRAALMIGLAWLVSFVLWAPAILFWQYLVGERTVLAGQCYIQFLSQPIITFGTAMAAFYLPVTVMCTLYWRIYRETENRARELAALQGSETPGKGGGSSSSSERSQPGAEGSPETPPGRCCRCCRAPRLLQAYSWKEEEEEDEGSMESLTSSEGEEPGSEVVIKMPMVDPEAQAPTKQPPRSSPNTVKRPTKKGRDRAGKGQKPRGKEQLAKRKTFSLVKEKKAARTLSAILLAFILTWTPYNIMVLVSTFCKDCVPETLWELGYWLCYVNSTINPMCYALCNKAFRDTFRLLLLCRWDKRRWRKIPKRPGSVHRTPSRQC
Summary of the method: as §1

K Channel = test system: K Channel
5HT7 (h) = target: T5, 5HT7 (h) (Homo sapiens, UniProt P34969); details: for inhibition at 10 µM: read-out: % Inhibition at 10µM
T5 construct: purchased Cerep
Summary of the method: as §1

A1 (h) = target: T6, A1 (h) (Homo sapiens, UniProt P30542); details: for inhibition at 1 µM: read-out: % Inhibition at 1µM; for inhibition at 10 µM: read-out: % Inhibition at 10µM
T6 construct: purchased Cerep
T6 sequence (P30542 1-326): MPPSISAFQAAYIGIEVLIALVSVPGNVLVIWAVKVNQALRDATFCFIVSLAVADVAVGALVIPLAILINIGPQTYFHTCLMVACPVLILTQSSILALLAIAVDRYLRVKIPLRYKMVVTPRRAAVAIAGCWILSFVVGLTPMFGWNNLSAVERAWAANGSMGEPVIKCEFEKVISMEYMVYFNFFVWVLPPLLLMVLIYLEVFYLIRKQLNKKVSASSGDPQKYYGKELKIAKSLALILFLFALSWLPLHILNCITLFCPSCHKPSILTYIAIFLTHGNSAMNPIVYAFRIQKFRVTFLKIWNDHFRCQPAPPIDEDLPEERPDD
Summary of the method: as §1

ɣ1 (h) = target: T7, ɣ1 (h) (Homo sapiens, UniProt P25929); details: for inhibition at 1 µM: read-out: % Inhibition at 1µM
T7 construct: purchased Cerep
T7 sequence (P25929 1-384): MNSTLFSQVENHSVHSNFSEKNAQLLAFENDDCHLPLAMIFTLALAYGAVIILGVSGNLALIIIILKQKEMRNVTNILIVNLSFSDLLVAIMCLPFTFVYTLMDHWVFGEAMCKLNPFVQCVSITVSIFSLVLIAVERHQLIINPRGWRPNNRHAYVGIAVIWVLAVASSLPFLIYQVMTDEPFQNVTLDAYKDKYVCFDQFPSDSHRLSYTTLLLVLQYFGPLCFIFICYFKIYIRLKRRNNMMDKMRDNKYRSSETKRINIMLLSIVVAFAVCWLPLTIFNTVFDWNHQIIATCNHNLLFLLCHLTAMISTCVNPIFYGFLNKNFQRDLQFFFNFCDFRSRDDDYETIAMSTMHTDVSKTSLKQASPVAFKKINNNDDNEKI
Summary of the method: as §1

T5 sequence (P34969 whole entry): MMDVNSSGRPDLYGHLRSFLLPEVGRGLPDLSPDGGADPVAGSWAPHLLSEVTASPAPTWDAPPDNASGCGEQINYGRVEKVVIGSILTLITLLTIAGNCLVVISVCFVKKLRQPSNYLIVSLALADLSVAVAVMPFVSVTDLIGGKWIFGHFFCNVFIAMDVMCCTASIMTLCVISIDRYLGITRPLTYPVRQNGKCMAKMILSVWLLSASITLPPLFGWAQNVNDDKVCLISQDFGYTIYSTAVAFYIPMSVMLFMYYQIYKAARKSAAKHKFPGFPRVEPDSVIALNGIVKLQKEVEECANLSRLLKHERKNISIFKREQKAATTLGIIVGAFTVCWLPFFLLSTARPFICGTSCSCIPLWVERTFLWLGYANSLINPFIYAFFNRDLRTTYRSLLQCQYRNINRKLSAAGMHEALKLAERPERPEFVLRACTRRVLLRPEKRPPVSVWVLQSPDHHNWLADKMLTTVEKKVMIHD
T2 sequence (P32246 whole entry): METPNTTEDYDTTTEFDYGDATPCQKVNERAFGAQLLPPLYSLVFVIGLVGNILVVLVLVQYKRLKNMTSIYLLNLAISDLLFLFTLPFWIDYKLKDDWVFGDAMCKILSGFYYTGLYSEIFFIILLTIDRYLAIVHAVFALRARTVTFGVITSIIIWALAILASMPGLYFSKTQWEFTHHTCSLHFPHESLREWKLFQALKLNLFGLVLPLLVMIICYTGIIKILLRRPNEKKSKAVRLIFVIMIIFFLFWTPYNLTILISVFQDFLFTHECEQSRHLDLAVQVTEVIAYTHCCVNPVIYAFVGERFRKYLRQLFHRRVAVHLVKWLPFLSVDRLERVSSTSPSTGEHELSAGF

Compound	% Inhibition at 1µM (Ca2+ Channel) [%]	% Inhibition at 10µM (Ca2+ Channel) [%]	inhibition at 1 µM (M2 (h)) [%]	inhibition at 10 µM (M2 (h)) [%]	% Inhibition at 10µM (SST) [%]	inhibition at 1 µM (M1 (h)) [%]	inhibition at 10 µM (M1 (h)) [%]	% Inhibition at 10µM (K Channel) [%]	also measured
COc1nc2ccc([C@](O)(c3ccc(Cl)cc3)c3cncn3C)cc2c(Cl)c1Cc1ccc(-n2cccn2)cc1 [B]	3	21	16	23	1	–	–	–	–
COc1nc2ccc([C@@](O)(c3ccccc3)C3CCN(C(C)=O)CC3)cc2c(Cl)c1Cc1ccc(-n2cccn2)cc1 [C]	–	–	–	–	–	12	21	17	inhibition at 1 µM (CCR1 (h); 1 µM): 17%; inhibition at 10 µM (ETA (h)): 12%
COc1nc2ccc([C@@](O)(c3ccc(C)nc3C)c3cnnn3C)cc2c(Cl)c1Cc1ccc(C(F)(F)F)cc1 [compound A]	2	32	–	–	6	–	–	9	inhibition at 1 µM (5HT7 (h); 5HT7 (h), 1 µM): 4%; inhibition at 10 µM (5HT7 (h); 5HT7 (h), 10 µM): 4%; inhibition at 1 µM (A1 (h); A1 (h), 1 µM): 19%; inhibition at 10 µM (A1 (h); A1 (h), 10 µM): 30%; inhibition at 1 µM (ETA (h); ETA (h), 1 µM): 5%; inhibition at 10 µM (ETA (h); ETA (h), 10 µM): 4%; inhibition at 1 µM (ɣ1 (h); ɣ1 (h), 1 µM): 5%; inhibition at 10 µM (ɣ1 (h); ɣ1 (h), 10 µM): 5%
CN(C)c1nc2ccc(C(O)(c3ccncc3)c3cncn3C)cc2c(Cl)c1-c1ccccc1 (stereo not shown) [compound D]	–	–	10	47	–	6	67	–	inhibition at 10 µM (5HT7 (h)): 16%; inhibition at 1 µM (A1 (h)): 18%; inhibition at 10 µM (A1 (h)): 50%; inhibition at 10 µM (CCR1 (h); 10 µM): 6%; inhibition at 1 µM (ɣ1 (h)): 16%

Reference: PMC5538713, “RORγt and RORα signature genes in human Th17 cells” (PLoS ONE, 2017)
